Reference: publication PMC6121307, “Cloning and Functional Characterisation of the Duplicated RDL Subunits from the Pea Aphid, Acyrthosiphon pisum” (International Journal of Molecular Sciences, 2018)
Like-named read-outs stand apart in the source and are kept apart here.

What was measured:
Apisum RDL1ad [1] = target: T1, Apisum RDL1ad (Acyrthosiphon pisum, UniProt A0A385J708); assay: Antagonistic actions of neonicotinoids on GABA-induced currents, two-electrode voltage-clamp in X. laevis oocytes; assay type: cell-based; conditions: for activity at 100 µM: read-out: % of GABA Response with 100 μM neonicotinoid
T1 sequence (A0A385J708 33-567): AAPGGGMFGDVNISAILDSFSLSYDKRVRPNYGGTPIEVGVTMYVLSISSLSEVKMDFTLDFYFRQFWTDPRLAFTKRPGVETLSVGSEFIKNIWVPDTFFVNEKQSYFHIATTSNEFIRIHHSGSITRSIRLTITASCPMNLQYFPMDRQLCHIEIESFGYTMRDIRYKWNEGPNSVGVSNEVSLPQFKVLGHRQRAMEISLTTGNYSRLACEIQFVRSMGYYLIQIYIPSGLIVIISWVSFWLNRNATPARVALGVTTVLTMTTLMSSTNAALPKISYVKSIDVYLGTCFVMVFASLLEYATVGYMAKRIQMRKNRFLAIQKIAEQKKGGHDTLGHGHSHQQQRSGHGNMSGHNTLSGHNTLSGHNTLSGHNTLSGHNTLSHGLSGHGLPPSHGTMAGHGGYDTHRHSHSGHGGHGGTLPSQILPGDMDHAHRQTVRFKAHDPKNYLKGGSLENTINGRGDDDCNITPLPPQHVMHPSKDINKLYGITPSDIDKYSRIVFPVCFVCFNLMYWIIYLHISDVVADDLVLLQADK
Procedure: (§1) Functional studies of Apisum RDL1ad, Apisum RDL1bd and Apisum RDL2b variant 1 were performed using the X. laevis expression system and two-electrode voltage-clamp electrophysiology. Stage V and VI X. laevis oocytes were harvested and rinsed with Ca^2+ free solution (82 mM NaCl, 2 mM KCl, 2 mM MgCl2, 5 mM HEPES, pH 7.4), before defolliculating with 1 mg/mL type IA collagenase (Sigma, St. Louis, MO, USA) in Ca^2+ free solution. Defolliculated oocytes were injected with 2.3 ng (23 nL) Apisum Rdl plasmid DNA into the nucleus of the oocyte and stored in standard Barth’s solution (supplemented with 50 µg/mL neomycin and 10 µg/mL penicillin/streptomycin) at 17.5 °C.
(§2) Oocytes 1–7 days post-injection were placed in a recording chamber and clamped at −60 mV with 3 M KCl filled borosilicate glass electrodes (resistance 0.5–5 MΩ) and an Oocyte Clamp OC-725C amplifier (Warner Instruments, CT, USA). Responses were recorded on a flatbed chart recorder (Kipp & Zonen BD-11E, Delft, The Netherlands). Oocytes were perfused with standard oocyte saline (SOS; 100 mM NaCl, 2 mM KCl, 1.8 mM CaCl2, 1 mM MgCl2, 5 mM HEPES, pH 7.6) at a flow rate of 10 mL/min. Oocytes were selected for experiments if stable after three or more consecutive challenges of GABA at EC50 concentration. The GABA EC50 concentration was determined using GABA concentration response curves, which were generated by challenging oocytes to increasing concentrations of GABA in SOS, with 3 min between challenges. Curves were calculated by normalising the GABA current responses to maximal responses induced by GABA before and after application.
(§3) Insecticides were initially diluted in dimethylsulphoxide (DMSO), before diluting to final concentrations in SOS.
(§4) For measuring the antagonistic actions of neonicotinoids, oocytes were initially incubated with a perfusion of the neonicotinoid in SOS for 6 min, before challenging with a combination of neonicotinoid and either the respective EC50 GABA concentration or 1 mM GABA.

Apisum RDL1bd [2] = target: T2, Apisum RDL1bd (Acyrthosiphon pisum, UniProt A0A385J708); assay: as above; assay type: cell-based; conditions: for effect on responses induced by GABA: 100 μM neonicotinoid
T2 sequence (A0A385J708 33-567): T1 sequence (A0A385J708 33-567)
Procedure: as §1, §2, §3, §4

Apisum RDL1ad [3] = target: T1, Apisum RDL1ad; assay: Fipronil inhibition of GABA EC50 induced currents, two-electrode voltage-clamp in X. laevis oocytes; assay type: cell-based; conditions: GABA at EC50 (20 μM); 3 min pre-incubation; mean ± SEM
Procedure: as §1, §2
(§5) Insecticides were initially diluted in dimethylsulphoxide (DMSO), before diluting to final concentrations in SOS. […]
(§6) Data are presented as mean ± SEM of individual oocytes from three or more separate frogs. […] Statistical significance was determined as p < 0.05, performed using one-way ANOVA (Graphpad Software, CA, USA).

Apisum RDL1bd [4] = target: T2, Apisum RDL1bd; assay: as above; assay type: cell-based; conditions: GABA at EC50 (50 μM); 3 min pre-incubation; mean ± SEM
Procedure: as §1, §2, §5, §6

Apisum RDL2b variant 1 [5] = target: T3, Apisum RDL2b variant 1 (Acyrthosiphon pisum, UniProt A0A385J709); assay: as above; assay type: cell-based; conditions: GABA at EC50 (30 μM); 3 min pre-incubation; mean ± SEM
Procedure: as §1, §2, §5, §6

Apisum RDL1ad [6] = target: T1, Apisum RDL1ad; assay: GABA concentration response, two-electrode voltage-clamp in X. laevis oocytes; assay type: cell-based
Procedure: as §1, §2
(§7) Data are presented as mean ± SEM of individual oocytes from three or more separate frogs. The concentration of GABA required to evoke 50% of the maximum response (EC50), the concentration of fipronil required to inhibit 50% of the maximal GABA response (IC50), and the Hill coefficient (nH) were determined by non-linear regression using Graphpad Prism 5 (Graphpad Software, CA, USA). Statistical significance was determined as p < 0.05, performed using one-way ANOVA (Graphpad Software, CA, USA).

Apisum RDL1bd [7] = target: T2, Apisum RDL1bd; assay: as above; assay type: cell-based
Procedure: as §1, §2, §7

Apisum RDL2b variant 1 [8] = target: T3, Apisum RDL2b variant 1; assay: as above; assay type: cell-based
Procedure: as §1, §2, §7

An. gambiae RDL = test system: An. gambiae RDL; set-up: method as in PMID 26296809; conditions: 100 μM; expressed in Xenopus oocytes; cited from earlier work
A. mellifera RDL = test system: A. mellifera RDL; set-up: method as in PMID 27288983; conditions: 100 μM; expressed in Xenopus oocytes; cited from earlier work
[9] = test system: cultured honey bee Kenyon cells; set-up: method as in PMID 11872245; conditions: cited from earlier work
Apisum RDL2b var 1 = assay: Antagonistic actions of neonicotinoids on GABA-induced currents, two-electrode voltage-clamp in X. laevis oocytes; assay type: cell-based, Acyrthosiphon pisum
Procedure: as §1
as §2, with “The GABA EC50 concentration was determined using GABA concentration response curves, which were generated by challenging oocytes to increasing concentrations of GABA in SOS, with 3 min between challenges.” left out, “application. […]” for “application.”

[10] = 100 μM neonicotinoid, GABA at 1 mM
[11] = 100 μM neonicotinoid, GABA at EC50 concentration
[12] = initial 250 μM GABA response, eggs clamped at −60 mV, mean ± SEM

## CN/C(=N\[N+](=O)[O-])NCc1cnc(Cl)s1 [CLO, clothianidin]
Apisum RDL1ad [1]; [10]
  effect on responses induced by GABA: no antagonistic actions
Apisum RDL1ad [1]; [11]
  effect on responses induced by GABA: no antagonistic actions
Apisum RDL1ad [1]
  activity at 100 µM: 100%
Apisum RDL1bd [2]; GABA at 1 mM
  effect on responses induced by GABA: no antagonistic actions
Apisum RDL1bd [2]; GABA at EC50 concentration
  effect on responses induced by GABA: no antagonistic actions
Apisum RDL1bd [2]; GABA at EC50
  % of GABA Response with 100 μM neonicotinoid: 100%

## N#Cc1nn(-c2c(Cl)cc(C(F)(F)F)cc2Cl)c(N)c1[S+]([O-])C(F)(F)F (stereo not shown) [Fipronil, fipronil]
Apisum RDL1ad [3]
  IC50: 0.64 ± 0.15 µM
Apisum RDL1bd [4]
  IC50: 0.18 ± 0.06 µM
Apisum RDL2b variant 1 [5]
  IC50: 0.72 ± 0.19 µM

## NCCCC(=O)O [GABA, γ-aminobutyric acid]
Apisum RDL1ad [6]; [12]
  Imax (maximum amplitude): 1.6 ± 0.6 μA
Apisum RDL1ad [6]; mean ± SEM of 4-5 oocytes
  EC50: 23 ± 1.7 µM
  GABA nH (hill coefficient): 1.6 ± 0.1
Apisum RDL1bd [7]; [12]
  Imax (maximum amplitude): 1.4 ± 1.3 μA
Apisum RDL1bd [7]; mean ± SEM of 4-5 oocytes
  EC50: 51 ± 9.2 µM
  GABA nH (hill coefficient): 2.0 ± 0.3
Apisum RDL2b variant 1 [8]; [12]
  Imax (maximum amplitude): 1.4 ± 1.5 μA
Apisum RDL2b variant 1 [8]; mean ± SEM of 4-5 oocytes
  EC50: 28 ± 5.4 µM
  GABA nH (hill coefficient): 1.0 ± 0.1

## O=[N+]([O-])NC1=NCCN1Cc1ccc(Cl)nc1 [IMI, imidacloprid]
Apisum RDL1ad [1]; [10]
  effect on responses induced by GABA: no detectable effect
Apisum RDL1ad [1]; [11]
  effect on responses induced by GABA: no detectable effect
Apisum RDL1ad [1]; GABA at EC50, 100 μM neonicotinoid
  activity at 100 µM: 100%
Apisum RDL1bd [2]; GABA at 1 mM
  effect on responses induced by GABA: no detectable effect
Apisum RDL1bd [2]; GABA at EC50 concentration
  effect on responses induced by GABA: no detectable effect
Apisum RDL1bd [2]; GABA at EC50
  % of GABA Response with 100 μM neonicotinoid: 100%
An. gambiae RDL
  action on RDL: acted as an antagonist
A. mellifera RDL
  action on RDL: acted as an antagonist
[9]
  effect on GABA-induced responses: reduce GABA-induced responses

## N#C/N=C1\SCCN1Cc1ccc(Cl)nc1 [THI, thiacloprid]
Apisum RDL1bd [2]; GABA at EC50, 100 µM
  % of GABA Response with 100 μM neonicotinoid: 55 ± 7%
Apisum RDL1bd [2]; GABA at EC50, listed as thiacloprid, 100 µM
  % of GABA Response with 100 μM neonicotinoid: 55%
Apisum RDL2b var 1; GABA at EC50
  % of GABA Response with 100 μM neonicotinoid: 62 ± 2%
Apisum RDL2b var 1; GABA at EC50, listed as thiacloprid
  % of GABA Response with 100 μM neonicotinoid: 62%
